Results reported in article PMC11227536, “Modulation of the Meisenheimer complex metabolism of nitro-benzothiazinones by targeted C-6 substitution” (Communications Chemistry, 2024).
Converted amounts (≈) assume the structure as drawn.

Tests used:
K-562 = experiment: Proliferation assay; assay type: cell-based; details: Homo sapiens, K562; 72 h, n = 4
Method: (§1) Supplementary Method 5: Biological Assays […]
(§2) 2. Proliferation and cytotoxicity assay
(§3) Cells and culture conditions
(§4) The following cell lines and media were used:
(§5) Cell line Cell culture medium
(§6) Cells were grown in the appropriate cell culture medium supplemented with 10 mL/L ultraglutamine 1 […]
(§7) heat inactivated fetal bovine serum (GIBCO Life Technologies 10270-106) at 37 °C in 5% CO 2 in high density polyethylene flasks (NUNC 156340).
(§8) To decide if the compounds have an antiproliferative and/or a cytotoxic effect on human cells, cell death and retardation of cell proliferation were assessed. Under our experimental conditions, the optical density measured from the CellTiter-Blue® reagent and methylene blue assay is proportional to the […]
(§9) The test substances were dissolved in DMSO and further diluted in the cell culture medium. The adherent cells were harvested at the logarithmic growth phase after soft trypsinization using 0.25% trypsin in PBS containing 0.02% EDTA (Biochrom KG L2163). For each experiment, approximately 10,000 cells were seeded with 0.1 mL culture medium per well of the 96-well microplates (HUVEC: flat bottomed NUNC 167008, K-562: round bottomed NUNC 163320). To test the antiproliferative […]
(§10) effect of test compounds on HUVEC and K-562, the cells were incubated for 72 hours in plates prepared with control and different dilutions of test substances. […]
(§11) of proliferation compared to the untreated control. […]
(§12) Cells were incubated with dilutions of the test substances in microplates for 72 hours at 37 °C in a humidified atmosphere and 5% CO 2. […]
cytotoxicity and the inhibition of cell proliferation. The number of viable cells was determined subsequent to staining with CellTiter-Blue® reagent or methylene blue.
K-562 cells: The influence of test substances on cell proliferation of K-562 was determined via the CellTiter-Blue® assay (PROMEGA). Briefly, viable cells are able to reduce the indicator dye resazurin […]
dye. Thus, formation of resorufin was followed by measuring absorption at 570 nm and subtracting absorption measured at 600 nm. […]
(§13) General remarks: Signals from the methylene blue and CellTiter-Blue® reagent are proportional to the number of viable cells. A repeat determination has been conducted in all experiments, four replicates were assayed. The calculations of the different values of GI 50 and CC 50 were performed with the software

[1] = tested on: Mycobacterium smegmatis (JMRC:STH:00056); experiment: MIC determination; assay type: cell-based; details: Mycolicibacterium smegmatis; n = 1
Method: (§14) Supplementary Method 5: Biological Assays
Minimal inhibitory concentrations were determined against Mycobacterium vaccae (JMRC:STI:10670) and Mycobacterium smegmatis (JMRC:STH:00056). M. vaccae and M. smegmatis cultures were grown 48 h at 32 °C in a medium consisting of glycerol (1%), beef extract (0.5%), peptone from casein (0.5%) and sodium chloride (0.3%). Serial dilutions of the DMSO test item solutions (1 mg∙mL -1) were prepared at 100 µL scale in 96 well plates in Mueller Hinton broth starting at 200 µg∙mL -1 (highest) to cover a final concentration range of 100 to 0.05 µg∙mL -1. Each plate was equipped with a series of DMSO and ciprofloxacin dilutions as quality controls. 96 well plates were inoculated with 100 µL diluted culture (Mueller Hinton bullion) at a final concentration of 5∙10 5 and incubated at 37 °C for 42 h. Growth/no growth was visually inspected. […]

Cytotoxicity assay = assay type: cell-based; details: human, n = 4
Method: as §1, §2, §3, §4, §5, §6, §7, §8
as §9, with “163320).” for “163320). To test the antiproliferative”
For the cytotoxicity assay, HeLa cells were preincubated for 48 hours without the test substances. To test the cytotoxic effect on HeLa, dilutions of the compounds were carried out carefully on the subconfluent monolayers of HeLa cells after the preincubation time. After incubation time, the cytolytic effect of compounds was analysed in comparison to the negative control. The 50% cytotoxic concentration (CC 50 ) was defined as the test compound concentration required for destruction of the cell monolayer by 50% compared to untreated control.
as §12
(§15) cytotoxicity and the inhibition of cell proliferation. The number of viable cells was determined subsequent to staining with CellTiter-Blue® reagent or methylene blue. […]
(§16) HUVEC and HeLa cells: The adherent HUVEC and HeLa cells were fixed by glutaraldehyde (MERCK […]
(§17) gently washing, the stain was eluted by adding 0.2 mL of hydrochloric acid (0.33 M) to each well. The optical densities were measured at 660 nm (methylene blue) in SUNRISE microplate reader (TECAN).
as §13

HUVEC = experiment: Proliferation assay; assay type: cell-based; details: Homo sapiens, 72 h, n = 4
Method: as §1, §2, §3, §4, §5, §6, §7, §8, §9, §10, §11, §12, §15, §16, §17, §13

[2] = parameters: method as in PMID 28097740; details: preclinical studies ref 12; cited from earlier work
[3] = tested on: Mycobacterium vaccae (JMRC:STI:10670); experiment: MIC determination; assay type: cell-based; details: for MIC: Mycolicibacterium vaccae, n = 1; for Selectivity index: ratio between CC50 (HeLa) and MIC M. vaccae
Method: as §14
Minimal inhibitory concentrations were determined against Mycobacterium vaccae (JMRC:STI:10670) and Mycobacterium smegmatis (JMRC:STH:00056). M. vaccae and M. smegmatis cultures were grown 48 h at 32 °C in a medium consisting of glycerol (1%), beef extract (0.5%), peptone from casein (0.5%) and sodium chloride (0.3%). Serial dilutions of the DMSO test item solutions (1 mg∙mL -1) were prepared at 100 µL scale in 96 well plates in Mueller Hinton broth starting at 200 µg∙mL -1 (highest) to cover a final concentration range of 100 to 0.05 µg∙mL -1. Each plate was equipped with a series of DMSO and ciprofloxacin dilutions as quality controls. 96 well plates were inoculated with 100 µL diluted culture (Mueller Hinton bullion) at a final concentration of 5∙10 5 and incubated at 37 °C for 42 h. Growth/no growth was visually inspected.
as §2, §3, §4, §5, §6, §7, §8
The test substances were dissolved in DMSO and further diluted in the cell culture medium. The adherent cells were harvested at the logarithmic growth phase after soft trypsinization using 0.25% trypsin in PBS containing 0.02% EDTA (Biochrom KG L2163). For each experiment, approximately 10,000 cells were seeded with 0.1 mL culture medium per well of the 96-well microplates (HUVEC: flat bottomed NUNC 167008, K-562: round bottomed NUNC 163320). To test the antiproliferative

Structure (SMILES) | GI50 (K-562) [µM] | MIC [1] [µM] | CC50 at 72 h (Cytotoxicity assay) [µM] | GI50 (HUVEC) [µM] | HMC formation in vivo (in words) [2] | MIC [3] [µM] | Selectivity index [3]
C[C@H]1COC2(CCN(c3nc(=O)c4cc(C(F)(F)F)cc([N+](=O)[O-])c4s3)CC2)O1 [Compound 1, reference compound] | > 116 | 0.058 (≈ 0.025 µg/mL) | > 116 | > 116 | significant hydride-Meisenheimer complex (HMC) formation in vivo | 0.004 (≈ 0.00173 µg/mL) | > 31248
CCOC(=O)c1cc([N+](=O)[O-])c2sc(N3CCC4(CC3)OC[C@H](C)O4)nc(=O)c2c1 [Compound 6b] | 50.7 ± 6.9 | 57.4 (≈ 25 µg/mL) | > 115 | 49.1 ± 1.1 | – | 1.79 (≈ 0.779 µg/mL) | > 64
C[C@H]1COC2(CCN(c3nc(=O)c4cc(C(=O)OCCO)cc([N+](=O)[O-])c4s3)CC2)O1 [Compound 6d] | 17.9 ± 1.1 | 55.4 (≈ 25 µg/mL) | > 111 | 73.3 ± 4.2 | – | 13.8 (≈ 6.23 µg/mL) | > 8
C[C@H]1COC2(CCN(c3nc(=O)c4cc(C(=O)OCCI)cc([N+](=O)[O-])c4s3)CC2)O1 [Compound 6e] | 27.6 ± 0.9 | 44.5 (≈ 25 µg/mL) | 78.2 ± 1.4 | 30.8 ± 0.5 | – | 2.78 (≈ 1.56 µg/mL) | 28
C[C@H]1COC2(CCN(c3nc(=O)c4cc(C(=O)OCCOC(=O)c5cc([N+](=O)[O-])c6sc(N7CCC8(CC7)OC[C@H](C)O8)nc(=O)c6c5)cc([N+](=O)[O-])c4s3)CC2)O1 [Compound 6f] | > 59 | 119 (≈ 100 µg/mL) | > 59.4 | > 59 | – | 14.9 (≈ 12.5 µg/mL) | > 4
C[C@H]1COC2(CCN(c3nc(=O)c4cc(C(N)=O)cc([N+](=O)[O-])c4s3)CC2)O1 [Compound 7a] | > 123 | 123 (≈ 50 µg/mL) | > 123 | > 123 | – | 61.5 (≈ 25 µg/mL) | > 2
CNC(=O)c1cc([N+](=O)[O-])c2sc(N3CCC4(CC3)OC[C@H](C)O4)nc(=O)c2c1 [Compound 7b] | > 119 | 119 (≈ 50 µg/mL) | > 119 | > 119 | – | 59.5 (≈ 25 µg/mL) | > 2
C[C@H]1COC2(CCN(c3nc(=O)c4cc(C(=O)NCCO)cc([N+](=O)[O-])c4s3)CC2)O1 [Compound 7d] | > 111 | 111 (≈ 50 µg/mL) | > 111 | > 111 | – | 27.7 (≈ 12.5 µg/mL) | > 4
C[C@H]1COC2(CCN(c3nc(=O)c4cc(C5=NCCO5)cc([N+](=O)[O-])c4s3)CC2)O1 [Compound 7e] | > 116 | 28.9 (≈ 12.5 µg/mL) | > 116 | > 116 | – | 14.5 (≈ 6.27 µg/mL) | > 8
